Tests used:
Assay type in all cases: cell-based
[1] = target: mutant CFTR (Homo sapiens, UniProt P13569); experiment: Fluorescence assay for CFTR activity (halide-sensitive YFP, HS-YFP); conditions: CFBE41o- and FRT cells with stable expression of mutant CFTR
How it was run: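 CFBE41o- or FRT cells stably expressing mutant CFTR and HS-YFP; correctors given 24 h, then 30 min forskolin 20 μM plus genistein 50 μM. Potentiators given 30 min with forskolin 20 μM, after 24 h at 27° C. for F508del, directly for G551D or G1349D. Quenching rate after 100 mM final I^− gives EC50.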

[2] = target: T1, F508del-CFTR (Homo sapiens, UniProt P13569, DEL508-508); experiment: Transepithelial electrical conductance (TEEC) in FRT cells expressing F508del-CFTR; set-up: expressed in transfected cells; host or cells: FRT cells; conditions: tested at 5.0 μM, 24 hrs incubation
Method: FRT cells expressing F508del-CFTR were plated on HTS Transwell-24 well permeable supports (Code 3379, Corning Life Sciences) at a density of 200,000 cells/well. After six days, cells were incubated for 24 hrs with test correctors, vehicle, or VX-809. Compounds were dissolved in both basolateral (800 μL) and apical (300 μL) culture medium. After treatment, the culture medium was removed and replaced on both sides with a saline solution containing (in mM): 130 NaCl, 2.7 KCl, 1.5 KH2PO4, 1 CaCl2, 0.5 MgCl2, 10 glucose, 10 Na-Hepes (pH 7.4). The basolateral and apical side received 800 μL and 100 μL, respectively. The 24-well tray with cells was placed on a block heater (SBH 130D, Stuart) to keep the temperature at 37° C. during the entire experiment. After 10 min, the basal transepithelial electrical resistance (TEER) across each layer of FRT cells was measured with a STX100C electrode pair connected to an EVOM2 voltohmeter (World Precision Instruments). To stimulate F508del-CFTR, each well received (apical side) 50 μL of saline solution containing 60 μM forskolin and 150 μM genistein (final concentrations: 20 μM forskolin, 50 μM genistein). Forskolin was also pipetted in the basolateral medium to obtain the 20 μM concentration. After 10 min TEER was measured again in each well. To block F508del-CFTR function, the inhibitor PPQ-102 was used at the final concentration of 30 μM. To achieve the desired concentration, 75 μL of the apical solution in each well was replaced with an equal volume of saline solution containing 20 μM forskolin, 50 μM genistein, and 60 μM PPQ-102. After further 10 min, the transepithelial electrical resistance was measured. All values of TEER were converted to transepithelial electrical conductance (TEEC) using the formula TEEC=1/TEER. The parameter to indicate activity of F508del-CFTR in each well (ATEEC) was calculated from the difference in TEEC measured after maximal stimulation of F508del-CFTR with forskolin and genistein and after block with PPQ-102.
Corrector activities obtained on selected compounds tested at 5.0 μM (expressed as ΔTEEC values) are illustrated in Table 2, wherein+: ΔTEEC<2000 μS; ++: 2000 μS <ΔTEEC<3000ρS; +++: ΔTEEC>3000 μS.

[3] = target: T1, F508del-CFTR; experiment: Short-circuit current recordings on human bronchial epithelial cells from CF patients (F508del/F508del); set-up: Human bronchial epithelial (HBE) cells obtained from CF patients (F508del/F508del genotype); endogenous in cells; host or cells: primary human bronchial epithelial cells from CF patients, F508del/F508del; conditions: HBE cells F508del/F508del, 24 hrs treatment, CPT-cAMP plus VX-770 minus CFTRinh-172
Method: Human bronchial epithelial (HBE) cells obtained from CF patients (F508del/F508del genotype) were plated on Snapwell inserts (Code 3801, Corning Life Sciences) at a density of 500,000 cells per insert. Cells were cultured for two weeks in a differentiating medium whose compositions has been previously described (Scudieri et al., J Physiol 590:6141-6155, 2012). For the first week, the medium was kept on both apical and basolateral sides of inserts (submerged condition). For the second week, the apical medium was removed (air-liquid condition, ALC). To test the activity of correctors, cells were treated for 24 hrs with compounds dissolved in the basolateral medium. After treatment, Snapwell inserts carrying differentiated bronchial epithelia were mounted in a vertical chamber resembling an Ussing system with internal fluid circulation. Both apical and basolateral hemichambers were filled with 5 mL of a Krebs bicarbonate solution containing (in mM): 126 NaCl, 0.38 KH2PO4, 2.13 K2HPO4, 1 MgSO4, 1 CaCl2, 24 NaHCO3, and 10 glucose. Both sides were continuously bubbled with a gas mixture containing 5% CO2-95% air and the temperature of the solution was kept at 37° C. The transepithelial voltage was short-circuited with a voltage-clamp (DVC-1000, World Precision Instruments) connected to the apical and basolateral chambers via Ag/AgCl electrodes and agar bridges (1 M KCl in 1% agar). The offset between voltage electrodes and the fluid resistance were canceled before experiments. The short-circuit current was recorded with a PowerLab 4/25 (ADInstruments) analogical to digital converter connected to a Macintosh computer. […] The difference between the current measured with CPT-cAMP plus potentiator and the current remaining after CFTRinh-172 treatment (ΔICFTR) was taken as the parameter reflecting F508del-CFTR expression in the apical membrane.
Activities of selected compounds on HBE cells (expressed as ΔICFTR) are illustrated in Table 3 wherein+: ΔICFTR<2.0 μA; ++: 2.0 μA<ΔICFTR<3.0 μA; +++: ΔICFTR >3.0 μA.

T1 sequence (P13569 with tags, fused parts or gaps DEL508-508): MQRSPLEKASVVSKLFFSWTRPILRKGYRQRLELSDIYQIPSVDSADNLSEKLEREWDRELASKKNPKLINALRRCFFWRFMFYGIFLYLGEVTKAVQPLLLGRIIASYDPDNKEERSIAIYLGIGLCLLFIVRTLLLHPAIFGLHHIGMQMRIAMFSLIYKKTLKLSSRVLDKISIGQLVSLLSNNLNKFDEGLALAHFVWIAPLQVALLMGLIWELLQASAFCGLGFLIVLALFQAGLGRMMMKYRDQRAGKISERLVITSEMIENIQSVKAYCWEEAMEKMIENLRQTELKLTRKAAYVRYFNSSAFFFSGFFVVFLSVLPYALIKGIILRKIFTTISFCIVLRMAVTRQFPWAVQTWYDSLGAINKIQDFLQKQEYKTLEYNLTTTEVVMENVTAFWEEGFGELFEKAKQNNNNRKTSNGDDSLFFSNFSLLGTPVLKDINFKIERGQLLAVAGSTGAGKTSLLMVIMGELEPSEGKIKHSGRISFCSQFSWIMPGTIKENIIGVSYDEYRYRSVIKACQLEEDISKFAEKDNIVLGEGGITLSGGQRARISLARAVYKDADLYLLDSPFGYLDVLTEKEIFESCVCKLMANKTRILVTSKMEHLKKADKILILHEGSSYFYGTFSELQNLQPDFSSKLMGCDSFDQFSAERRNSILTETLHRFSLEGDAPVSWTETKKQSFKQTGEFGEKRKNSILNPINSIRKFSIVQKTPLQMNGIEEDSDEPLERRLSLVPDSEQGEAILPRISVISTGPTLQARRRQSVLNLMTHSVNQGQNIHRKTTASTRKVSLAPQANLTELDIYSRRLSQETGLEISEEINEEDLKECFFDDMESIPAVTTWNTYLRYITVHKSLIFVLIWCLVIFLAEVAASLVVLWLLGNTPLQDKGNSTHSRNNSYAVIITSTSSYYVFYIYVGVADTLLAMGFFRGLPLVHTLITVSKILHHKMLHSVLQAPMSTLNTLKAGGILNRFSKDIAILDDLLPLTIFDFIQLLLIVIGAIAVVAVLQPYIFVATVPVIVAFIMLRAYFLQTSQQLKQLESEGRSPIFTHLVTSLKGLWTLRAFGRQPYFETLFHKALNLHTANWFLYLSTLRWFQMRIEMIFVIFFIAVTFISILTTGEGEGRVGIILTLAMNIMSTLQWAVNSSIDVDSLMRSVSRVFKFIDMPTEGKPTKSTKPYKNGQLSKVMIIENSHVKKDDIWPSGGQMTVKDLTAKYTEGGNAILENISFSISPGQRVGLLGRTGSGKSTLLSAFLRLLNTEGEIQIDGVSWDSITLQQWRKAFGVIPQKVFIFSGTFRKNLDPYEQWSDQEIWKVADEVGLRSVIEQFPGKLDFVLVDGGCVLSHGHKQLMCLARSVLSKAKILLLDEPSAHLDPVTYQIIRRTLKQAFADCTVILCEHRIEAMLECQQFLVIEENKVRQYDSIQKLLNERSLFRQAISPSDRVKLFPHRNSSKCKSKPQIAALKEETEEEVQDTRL
Chain of mutant CFTR (P13569 with tags, fused parts or gaps DEL508-508): as above

Cc1nc2ccc(S(=O)(=O)N3CCOC(c4c(C(N)=O)sc5ccccc45)C3)cc2o1 (racemic) [compound 034, rac-3-[4-[(2-methyl-1,3-benzoxazol-6-yl)sulfonyl]morpholin-2-yl]benzothiophene-2-carboxamide]
EC50 [1]: < 1000 nM | activity (corrector activity expressed as ΔTEEC) [2]: ++ (2000 μS <ΔTEEC<3000ρS) | activity (ΔICFTR) [3]: +++ (ΔICFTR >3.0 μA)

NC(=O)c1sc2ccccc2c1C1CN(S(=O)(=O)c2ccc(C(F)(F)F)c(F)c2)CCO1 (racemic) [compound 041, rac-3-[4-[3-fluoro-4-(trifluoromethyl)phenyl]sulfonylmorpholin-2-yl]benzothiophene-2-carboxamide]
EC50 [1]: < 1000 nM | activity (corrector activity expressed as ΔTEEC) [2]: +++ (ΔTEEC>3000 μS) | activity (ΔICFTR) [3]: ++ (2.0 μA<ΔICFTR<3.0 μA)

NC(=O)c1sc2ccccc2c1[C@@H]1CN(S(=O)(=O)c2ccc(C(F)(F)F)cc2)CCO1 (single isomer, unassigned) [compound 042]
EC50 [1]: > 2000 nM | activity (corrector activity expressed as ΔTEEC) [2]: + (ΔTEEC<2000 μS)

NC(=O)c1sc2ccccc2c1C1CN(S(=O)(=O)c2ccc(C(F)(F)F)cc2)CCO1 (racemic) [compound 011, rac-3-[4-[4-(trifluoromethyl)phenyl]sulfonylmorpholin-2-yl]benzothiophene-2-carboxamide]
EC50 [1]: 1000 to 2000 nM | activity (corrector activity expressed as ΔTEEC) [2]: ++ (2000 μS <ΔTEEC<3000ρS) | activity (ΔICFTR) [3]: +++ (ΔICFTR >3.0 μA)

Cc1cc(S(=O)(=O)N2CCO[C@H](c3c(C(N)=O)sc4ccccc34)C2)ccc1F (single isomer, unassigned) [compound 013]
EC50 [1]: > 2000 nM | activity (ΔICFTR) [3]: ++ (2.0 μA<ΔICFTR<3.0 μA)

NC(=O)c1sc2ccccc2c1C1CN(S(=O)(=O)c2ccc(OC(F)(F)F)cc2)CCO1 (racemic) [compound 039, rac-3-[4-[4-(trifluoromethoxy)phenyl]sulfonylmorpholin-2-yl]benzothiophene-2-carboxamide]
EC50 [1]: < 1000 nM | activity (corrector activity expressed as ΔTEEC) [2]: ++ (2000 μS <ΔTEEC<3000ρS)

Cc1cc(S(=O)(=O)N2CCOC(c3c(C(N)=O)sc4ccccc34)C2)ccc1F (racemic) [compound 001, rac-3-[4-(4-fluoro-3-methyl-benzenesulfonyl)-morpholin-2-yl]-benzo[b]thiophene-2-carboxylic acid amide]
EC50 [1]: > 2000 nM | activity (corrector activity expressed as ΔTEEC) [2]: ++ (2000 μS <ΔTEEC<3000ρS) | activity (ΔICFTR) [3]: + (ΔICFTR<2.0 μA)

NC(=O)c1sc2ccccc2c1[C@H]1CN(S(=O)(=O)c2ccc(C(F)(F)F)cc2)CCO1 (single isomer, unassigned) [compound 043]
EC50 [1]: < 1000 nM | activity (corrector activity expressed as ΔTEEC) [2]: +++ (ΔTEEC>3000 μS)

Cc1nc2ccc(S(=O)(=O)N3CCO[C@H](c4c(C(N)=O)sc5ccccc45)C3)cc2o1 (single isomer, unassigned) [compound 071]
EC50 [1]: < 1000 nM | activity (ΔICFTR) [3]: +++ (ΔICFTR >3.0 μA)

NC(=O)c1sc2ccccc2c1C1CN(S(=O)(=O)c2ccc3c(c2)OCCO3)CCO1 (racemic) [compound 018, rac-3-[(4-(2,3-dihydro-1,4-benzodioxin-6-ylsulfonyl)morpholin-2-yl]benzothiophene-2-carboxamide]
EC50 [1]: < 1000 nM | activity (ΔICFTR) [3]: ++ (2.0 μA<ΔICFTR<3.0 μA)
